Measured values from patent publication US8399465B2, “Compounds with two fused bicyclic heteroaryl moieties as modulators of leukotriene A4 hydrolase” (Janssen Pharmaceutica NV, priority 2009, dated 2013).
Structures can show the parent of a compound that is named as a salt.

Tests used:
[1] = test system: LTB4 production in murine blood (LTA4H); assay: LTB4 production by calcium ionophore-stimulated murine blood for LTA4H inhibitor activity; assay type: cell-based, CD-1 mice; settings: Mus musculus; murine blood diluted 1 in 15, A23187 stimulated; single determination or average; mark after value = form tested: ′ free base, ″ hydrochloride, ^ formate; read-out: IC50
Outline: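 Heparinized blood from CD-1 mice was preincubated with compound for 15 min at 37° C, then stimulated with calcium ionophore A23187 (final 7 μg/mL) for 30 min. Centrifugation stopped the reaction, and LTB4 in the supernatant was measured by enzyme immunoassay. Values are single determinations or means of two or more.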

[2] = target: T1, recombinant human LTA4 hydrolase (rhLTA4H) (Homo sapiens, UniProt P09960); assay: Recombinant human LTA4 hydrolase assay for LTA4 hydrolase inhibitor activity; assay type: biochemical; settings: rhLTA4H, LTB4 by immunoassay; single determination or average of two or more; mark after value = form tested: ′ free base, ″ hydrochloride, ^ formate; read-out: IC50
T1 construct: made in house; host or cells: Spodoptera frugiperda (Sf-9) cells, baculovirus (pFastBac1)
T1 sequence (P09960 1-611): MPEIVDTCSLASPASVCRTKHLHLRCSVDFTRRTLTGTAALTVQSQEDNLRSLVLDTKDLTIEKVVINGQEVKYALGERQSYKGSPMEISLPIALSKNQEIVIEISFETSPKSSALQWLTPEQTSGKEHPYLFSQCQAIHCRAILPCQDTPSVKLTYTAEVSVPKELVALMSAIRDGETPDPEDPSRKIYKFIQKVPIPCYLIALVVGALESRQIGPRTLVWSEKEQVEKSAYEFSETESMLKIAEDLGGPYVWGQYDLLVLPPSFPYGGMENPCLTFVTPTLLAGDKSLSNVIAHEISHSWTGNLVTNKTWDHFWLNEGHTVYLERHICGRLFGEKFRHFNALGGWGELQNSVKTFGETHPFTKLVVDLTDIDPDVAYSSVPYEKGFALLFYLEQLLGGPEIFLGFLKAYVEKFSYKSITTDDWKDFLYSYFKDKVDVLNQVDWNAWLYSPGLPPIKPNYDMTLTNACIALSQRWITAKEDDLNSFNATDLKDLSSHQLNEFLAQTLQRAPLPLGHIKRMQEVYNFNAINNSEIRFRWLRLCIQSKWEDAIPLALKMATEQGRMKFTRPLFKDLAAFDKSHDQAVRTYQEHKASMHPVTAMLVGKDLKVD
Outline: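 Baculovirus/Sf-9-expressed human LTA4H (10 ng) was preincubated 10 min at rt with compound in assay buffer (10% DMSO in compound dilution), then reacted 30 min at rt with LTA4 free acid made from its methyl ester. LTB4 produced was measured by ELISA after dilution; IC50 from non-linear regression, single or averaged determinations.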

IC50 [1] | IC50 [2] | Structure (SMILES)
120 nM | 21 nM | c1cnc2nc(Oc3ccc4c(CN5CCN6CCCC6C5)coc4c3)sc2c1 (centres unmarked) [Example 326, 2-[3-(Hexahydro-pyrrolo[1,2-a]pyrazin-2-ylmethyl)-benzofuran-6-yloxy]-thiazolo[4,5-b]pyridine]
48 nM | 24 nM | CC(=O)NC1CCN(Cc2coc3cc(Oc4nc5nccc(C)c5s4)ccc23)CC1 [Example 252, N-{1-[6-(7-Methyl-thiazolo[4,5-b]pyridin-2-yloxy)-benzofuran-3-ylmethyl]-piperidin-4-yl}-acetamide formate]
170 nM | 26 nM | CC(=O)NC1CCN(C(=O)c2coc3cc(Oc4nc5ncccc5s4)ccc23)CC1 [Example 368, N-{1-[6-(Thiazolo[4,5-b]pyridin-2-yloxy)-benzofuran-3-carbonyl]-piperidin-4-yl}-acetamide]
200 nM | 7 nM | O=C(C1CCOC1)N1CC2CN(Cc3coc4cc(Oc5nc6ncccc6s5)ccc34)CC2C1 (centres unmarked) [Example 354, (Tetrahydro-furan-3-yl)-{5-[6-(thiazolo[4,5-b]pyridin-2-yloxy)-benzofuran-3-ylmethyl]-hexahydro-pyrrolo[3,4-c]pyrrol-2-yl}-methanone]
270 nM | 27 nM | CC(=O)N1CCN(CC(=O)NCc2coc3cc(Oc4nc5ncccc5s4)ccc23)CC1 [Example 390, 2-(4-Acetyl-piperazin-1-yl)-N-[6-(thiazolo[4,5-b]pyridin-2-yloxy)-benzofuran-3-ylmethyl]-acetamide]
81 nM | 2 nM | O=C1CCCN1C1CCN(Cc2c[nH]c3cc(Oc4nc5ncccc5s4)ccc23)CC1 [Example 20, 1-{1-[6-(Thiazolo[4,5-b]pyridin-2-yloxy)-1H-indol-3-ylmethyl]-piperidin-4-yl}-pyrrolidin-2-one]
8510 nM | 21 nM | CCOC(=O)C1CCN(Cc2c[nH]c3cc(Oc4nc5cccnc5s4)ccc23)CC1 [Example 140, 1-[6-(Thiazolo[5,4-b]pyridin-2-yloxy)-1H-indol-3-ylmethyl]-piperidine-4-carboxylic acid ethyl ester]
240 nM | 26 nM | c1ccc(N2CCN(Cc3coc4cc(Oc5nc6ncccc6s5)ccc34)CC2)cc1 [Example 287, 2-[3-(4-Phenyl-piperazin-1-ylmethyl)-benzofuran-6-yloxy]-thiazolo[4,5-b]pyridine formate]
30 nM | 6 nM | CC(=O)N(C1CC1)C1CCN(Cc2coc3cc(Oc4nc5ncccc5s4)ccc23)CC1 [Example 322, N-Cyclopropyl-N-{1-[6-(thiazolo[4,5-b]pyridin-2-yloxy)-benzofuran-3-ylmethyl]-piperidin-4-yl}-acetamide]
36 nM | 13 nM | CC(=O)N[C@H]1CCN(Cc2coc3cc(Oc4nc5ncccc5s4)ccc23)C1 [Example 310, (S)—N-{1-[6-(Thiazolo[4,5-b]pyridin-2-yloxy)-benzofuran-3-ylmethyl]-pyrrolidin-3-yl}-acetamide]
230 nM | 16 nM | O=C1CN(Cc2coc3cc(Oc4nc5ncccc5s4)ccc23)CCN1 [Example 342, 4-[6-(Thiazolo[4,5-b]pyridin-2-yloxy)-benzofuran-3-ylmethyl]-piperazin-2-one]
1040 nM | 54 nM | Fc1ccc2c(c1)CN(Cc1coc3cc(Oc4nc5ncccc5s4)ccc13)C2 [Example 330, 2-[3-(5-Fluoro-1,3-dihydro-isoindol-2-ylmethyl)-benzofuran-6-yloxy]-thiazolo[4,5-b]pyridine]
24 nM | 9 nM | CS(=O)(=O)N1CCCN(Cc2coc3cc(Oc4nc5ncccc5s4)ccc23)CC1 [Example 247, 2-[3-(4-Methanesulfonyl-[1,4]diazepan-1-ylmethyl)-benzofuran-6-yloxy]-thiazolo[4,5-b]pyridine]

More lines, now with the values behind:

Structure (SMILES) | IC50 [1] | IC50 [2]
NC(=O)C1CCN(Cc2cc3ccc(Oc4nc5ccccc5s4)cc3[nH]2)CC1 [Example 69, 1-[6-(Benzothiazol-2-yloxy)-1H-indol-2-ylmethyl]-piperidine-4-carboxylic acid amide] | 1220 nM | 47 nM
OC[C@@H]1CCCN1Cc1coc2cc(Oc3nc4ccccc4s3)ccc12 [Example 312, (S)-{1-[6-(Benzothiazol-2-yloxy)-benzofuran-3-ylmethyl]-pyrrolidin-2-yl}-methanol] | 160 nM | 22 nM
Clc1ccc2sc3c(c2c1)CCN(Cc1c[nH]c2cc(Oc4nc5ncccc5s4)ccc12)C3 [Example 37, 6-Chloro-2-[6-(thiazolo[4,5-b]pyridin-2-yloxy)-1H-indol-3-ylmethyl]-1,2,3,4-tetrahydro-benzo[4,5]thieno[2,3-c]pyridine formate] | 310 nM | 8 nM
O=C1C[C@@H](O)CN1C1CCN(Cc2c[nH]c3cc(Oc4nc5ccccc5s4)ccc23)CC1 [Example 44, (4R)-1-{1-[6-(Benzothiazol-2-yloxy)-1H-indol-3-ylmethyl]-piperidin-4-yl}-4-hydroxy-pyrrolidin-2-one] | 222 nM | 6 nM
Fc1ccc(CNCc2coc3cc(Oc4nc5ncccc5s4)ccc23)cc1 [Example 345, (4-Fluoro-benzyl)-[6-(thiazolo[4,5-b]pyridin-2-yloxy)-benzofuran-3-ylmethyl]-amine] | 72 nM | 7 nM
CC(=O)N1[C@@H]2CC[C@H]1C[C@@H](NCc1coc3cc(Oc4nc5ncccc5s4)ccc13)C2 [Example 332, meso-endo-1-(3-{[6-(Thiazolo[4,5-b]pyridin-2-yloxy)-benzofuran-3-ylmethyl]-amino}-8-aza-bicyclo[3.2.1]oct-8-yl)-ethanone formate] | 100 nM | 8 nM
NC(=O)N[C@H]1C[C@H]2CC[C@@H](C1)N2Cc1coc2cc(Oc3nc4ncccc4s3)ccc12 [Example 175, meso-endo-{8-[6-(Thiazolo[4,5-b]pyridin-2-yloxy)-benzofuran-3-ylmethyl]-8-aza-bicyclo[3.2.1]oct-3-yl}-urea] | 176 nM | 2 nM
NC(=O)N[C@@H]1C[C@H]2CC[C@@H](C1)N2Cc1coc2cc(Oc3nc4ncccc4s3)ccc12 [Example 207, meso-exo-{8-[6-(Thiazolo[4,5-b]pyridin-2-yloxy)-benzofuran-3-ylmethyl]-8-aza-bicyclo[3.2.1]oct-3-yl}-urea] | 160 nM | 1 nM
CC(=O)N1CCN(Cc2cc3ccc(Oc4nc5ncccc5s4)cc3o2)CC1 [Example 171, 1-{4-[6-(Thiazolo[4,5-b]pyridin-2-yloxy)-benzofuran-2-ylmethyl]-piperazin-1-yl}-ethanone] | 280 nM | 59 nM
CC(=O)N1C[C@H]2CC[C@@H](C1)N2Cc1cc2cc(Oc3nc4cnccc4s3)ccc2o1 [Example 206, meso-1-{8-[5-(Thiazolo[4,5-c]pyridin-2-yloxy)-benzofuran-2-ylmethyl]-3,8-diaza-bicyclo[3.2.1]oct-3-yl}-ethanone] | 340 nM | 147 nM
OCC1CCN(Cc2c[nH]c3cc(Oc4nc5ccccc5s4)ccc23)CC1 [Example 28, {1-[6-(Benzothiazol-2-yloxy)-1H-indol-3-ylmethyl]-piperidin-4-yl}-methanol] | 79 nM | 15 nM
O=C(C1CCN(Cc2c[nH]c3cc(Oc4nc5ccccc5s4)ccc23)CC1)N1CCCC1 [Example 23, {1-[6-(Benzothiazol-2-yloxy)-1H-indol-3-ylmethyl]-piperidin-4-yl}-pyrrolidin-1-yl-methanone] | 114 nM | 5 nM
O=C(O)CN[C@H]1C[C@H]2CC[C@@H](C1)N2Cc1cc2ccc(Oc3nc4ccccc4s3)cc2o1 [Example 81, meso-endo-{8-[6-(Benzothiazol-2-yloxy)-benzofuran-2-ylmethyl]-8-aza-bicyclo[3.2.1]oct-3-ylamino}-acetic acid] | 450 nM | 29 nM
c1ccc2sc(Oc3ccc4c(CN5CCOCC5)c[nH]c4c3)nc2c1 [Example 3, 2-(3-Morpholin-4-ylmethyl-1H-indol-6-yloxy)-benzothiazole] | 303 nM | 16 nM
c1ccc2c(c1)CCN(Cc1c[nH]c3cc(Oc4nc5ccccc5s4)ccc13)C2 [Example 7, 2-[6-(Benzothiazol-2-yloxy)-1H-indol-3-ylmethyl]-1,2,3,4-tetrahydro-isoquinoline] | 476 nM | 42 nM
